Laboratory results taken from ChEMBL document CHEMBL1201862, “PubChem BioAssay data set” (2004).
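Results reflect a 48-hour exposure of cells in 96-well plates to compound at five concentrations. The concentration for 50% growth inhibition is given as GI50.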 Calls of active or inactive are those of the source. Cut-off read from the data, not from the text of the source: active = GI50 up to about 1.1 µM and inactive = higher.

Tests used:
Experiment in all cases: inhibition of tumour cell growth, NCI panel, 48 h
[1] = tested on: OVCAR-8
[2] = tested on: EKVX
[3] = tested on: SK-MEL-5
[4] = tested on: OVCAR-5
[5] = tested on: SK-OV-3
[6] = tested on: LXFL 529
[7] = tested on: HCC 2998
[8] = tested on: M14
[9] = tested on: TK-10
[10] = tested on: CCRF-CEM
[11] = tested on: 786-0
[12] = tested on: OVCAR-3
[13] = tested on: KM12
[14] = tested on: HCT-116
[15] = tested on: NCI-H460
[16] = tested on: Malme-3M
[17] = tested on: M19-MEL
[18] = tested on: SF-268
[19] = tested on: SF-295
[20] = tested on: HCT-15
[21] = tested on: SF-539
[22] = tested on: A549
[23] = tested on: MOLT-4
[24] = tested on: UO-31
[25] = tested on: COLO 205
[26] = tested on: NCI-H226
[27] = tested on: SR
[28] = tested on: DMS-273
[29] = tested on: KM-20L2
[30] = tested on: HOP-62
[31] = tested on: U-251
[32] = tested on: HT-29
[33] = tested on: K562
[34] = tested on: SNB-78
[35] = tested on: DLD-1
[36] = tested on: SW-620
[37] = tested on: CAKI-1
[38] = tested on: SNB-19
[39] = tested on: RPMI-8226
[40] = tested on: NCI-H522
[41] = tested on: NCI-H23
[42] = tested on: ACHN
[43] = tested on: RXF 631
[44] = tested on: LOX IMVI
[45] = tested on: HL-60
[46] = tested on: IGROV-1
[47] = tested on: A498
[48] = tested on: OVCAR-4
[49] = tested on: SN12C
[50] = tested on: SK-MEL-2
[51] = tested on: UACC-62
[52] = tested on: UACC-257
[53] = tested on: DMS-114
[54] = tested on: SK-MEL-28
[55] = tested on: RXF 393
[56] = tested on: SNB-75

SMILES: COC(=O)[C@]1(C)CCC[C@@]2(C)C1CCC1=C[C@@]3(C(C)C)CC[C@]12OO3 (some centres undefined)
- GI50 [1]: 35.8 µM (inactive)
- GI50 [2]: 36.6 µM (inactive)
- GI50 [3]: 15.7 µM (inactive)
- GI50 [4]: 22.4 µM (inactive)
- GI50 [5]: 60 µM (inactive)
- GI50 [6]: 23.2 µM (inactive)
- GI50 [7]: 31.3 µM (inactive)
- GI50 [8]: 22 µM (inactive)
- GI50 [9]: > 100 µM (inactive)
- GI50 [10]: 17.9 µM (inactive)
- GI50 [11]: 20.4 µM (inactive)
- GI50 [12]: 27.8 µM (inactive)
- GI50 [13]: 24.6 µM (inactive)
- GI50 [14]: 25.2 µM (inactive)
- GI50 [15]: 21.1 µM (inactive)
- GI50 [16]: 42 µM (inactive)
- GI50 [17]: 25.1 µM (inactive)
- GI50 [18]: 24.7 µM (inactive)
- GI50 [19]: 25.8 µM (inactive)
- GI50 [20]: 31.9 µM
- GI50 [21]: 22.3 µM (inactive)
- GI50 [22]: 30.6 µM (inactive)
- GI50 [23]: 25.8 µM (inactive)
- GI50 [24]: 18.5 µM (inactive)
- GI50 [25]: 22.5 µM (inactive)
- GI50 [26]: 26.3 µM (inactive)
- GI50 [27]: 19.4 µM (inactive)
- GI50 [28]: 25.7 µM (inactive)
- GI50 [29]: > 10 µM (inactive)
- GI50 [30]: 36.9 µM (inactive)
- GI50 [31]: 41.8 µM (inactive)
- GI50 [32]: 15.2 µM (inactive)
- GI50 [33]: 25.9 µM (inactive)
- GI50 [34]: 54.3 µM (inactive)
- GI50 [35]: 24.2 µM (inactive)
- GI50 [36]: 36.1 µM (inactive)
- GI50 [37]: > 10 µM (inactive)
- GI50 [38]: 58.2 µM (inactive)
- GI50 [39]: 18.2 µM (inactive)
- GI50 [40]: 17.8 µM (inactive)
- GI50 [41]: 34.1 µM (inactive)
- GI50 [42]: 36.4 µM (inactive)
- GI50 [43]: 22.6 µM (inactive)
- GI50 [44]: 24.7 µM (inactive)
- GI50 [45]: 19.1 µM (inactive)
- GI50 [46]: 33.2 µM (inactive)
- GI50 [47]: 20.4 µM (inactive)
- GI50 [48]: 42.3 µM (inactive)
- GI50 [49]: 31.3 µM (inactive)
- GI50 [50]: 36.5 µM (inactive)
- GI50 [51]: 25.3 µM (inactive)
- GI50 [52]: 26.2 µM (inactive)

SMILES: COc1cc2c(c(OC)c1OC)-c1ccc(SC)c(=O)cc1[C@@H](NC(=O)c1ccc(Cl)cc1)CC2
- GI50 [1]: < 0.01 µM (active)
- GI50 [3]: < 0.01 µM (active)
- GI50 [6]: < 0.01 µM (active)
- GI50 [7]: < 0.01 µM (active)
- GI50 [8]: < 0.01 µM (active)
- GI50 [9]: 2.36 µM (inactive)
- GI50 [10]: < 0.01 µM (active)
- GI50 [11]: < 0.01 µM (active)
- GI50 [12]: < 0.01 µM (active)
- GI50 [14]: < 0.01 µM (active)
- GI50 [15]: < 0.01 µM (active)
- GI50 [16]: < 0.01 µM (active)
- GI50 [17]: < 0.01 µM (active)
- GI50 [18]: < 0.01 µM (active)
- GI50 [53]: < 0.01 µM (active)
- GI50 [54]: 13.9 µM (inactive)
- GI50 [19]: < 0.01 µM (active)
- GI50 [20]: < 0.01 µM
- GI50 [21]: < 0.01 µM (active)
- GI50 [55]: < 0.01 µM (active)
- GI50 [22]: < 0.01 µM (active)
- GI50 [56]: 2.16 µM (inactive)
- GI50 [23]: < 0.01 µM (active)
- GI50 [24]: 0.0196 µM (active)
- GI50 [25]: < 0.01 µM (active)
- GI50 [26]: < 0.01 µM (active)
- GI50 [27]: < 0.01 µM (active)
- GI50 [28]: < 0.01 µM (active)
- GI50 [29]: < 0.01 µM (active)
- GI50 [30]: < 0.01 µM (active)
- GI50 [31]: < 0.01 µM (active)
- GI50 [32]: < 0.01 µM (active)
- GI50 [33]: < 0.01 µM (active)
- GI50 [35]: < 0.01 µM (active)
- GI50 [36]: < 0.01 µM (active)
- GI50 [38]: < 0.01 µM (active)
- GI50 [39]: < 0.01 µM (active)
- GI50 [41]: < 0.01 µM (active)
- GI50 [42]: < 0.01 µM (active)
- GI50 [43]: < 0.01 µM (active)
- GI50 [44]: < 0.01 µM (active)
- GI50 [45]: < 0.01 µM (active)
- GI50 [46]: < 0.01 µM (active)
- GI50 [47]: < 0.01 µM (active)
- GI50 [48]: < 0.01 µM (active)
- GI50 [49]: < 0.01 µM (active)
- GI50 [50]: < 0.01 µM (active)
- GI50 [51]: < 0.01 µM (active)
- GI50 [52]: < 0.01 µM (active)

SMILES: O=C(NCCCl)SCCO
- GI50 [1]: > 100 µM (inactive)
- GI50 [2]: > 100 µM (inactive)
- GI50 [4]: > 100 µM (inactive)
- GI50 [5]: > 100 µM (inactive)
- GI50 [6]: > 100 µM (inactive)
- GI50 [7]: > 100 µM (inactive)
- GI50 [8]: > 100 µM (inactive)
- GI50 [9]: > 100 µM (inactive)
- GI50 [10]: > 100 µM (inactive)
- GI50 [11]: > 100 µM (inactive)
- GI50 [12]: > 100 µM (inactive)
- GI50 [13]: > 100 µM (inactive)
- GI50 [14]: > 100 µM (inactive)
- GI50 [15]: > 100 µM (inactive)
- GI50 [16]: > 100 µM (inactive)
- GI50 [17]: > 100 µM (inactive)
- GI50 [18]: > 100 µM (inactive)
- GI50 [53]: > 100 µM (inactive)
- GI50 [54]: > 100 µM (inactive)
- GI50 [19]: > 100 µM (inactive)
- GI50 [20]: > 100 µM
- GI50 [21]: > 100 µM (inactive)
- GI50 [55]: > 100 µM (inactive)
- GI50 [22]: > 100 µM (inactive)
- GI50 [56]: > 100 µM (inactive)
- GI50 [23]: > 100 µM (inactive)
- GI50 [24]: > 100 µM (inactive)
- GI50 [25]: > 100 µM (inactive)
- GI50 [26]: > 100 µM (inactive)
- GI50 [27]: > 100 µM (inactive)
- GI50 [28]: > 100 µM (inactive)
- GI50 [29]: > 100 µM (inactive)
- GI50 [30]: > 100 µM (inactive)
- GI50 [31]: > 100 µM (inactive)
- GI50 [32]: > 100 µM (inactive)
- GI50 [33]: > 100 µM (inactive)
- GI50 [34]: > 100 µM (inactive)
- GI50 [35]: > 100 µM (inactive)
- GI50 [36]: > 100 µM (inactive)
- GI50 [38]: > 100 µM (inactive)
- GI50 [39]: > 100 µM (inactive)
- GI50 [40]: > 100 µM (inactive)
- GI50 [41]: > 100 µM (inactive)
- GI50 [42]: > 100 µM (inactive)
- GI50 [43]: > 100 µM (inactive)
- GI50 [45]: > 100 µM (inactive)
- GI50 [46]: > 100 µM (inactive)
- GI50 [47]: > 100 µM (inactive)
- GI50 [48]: > 100 µM (inactive)
- GI50 [49]: > 100 µM (inactive)
- GI50 [50]: > 100 µM (inactive)
- GI50 [51]: > 100 µM (inactive)
- GI50 [52]: > 100 µM (inactive)
